Measured values from publication PMC8079033, “Design, synthesis, anticancer evaluation, and molecular modelling studies of novel tolmetin derivatives as potential VEGFR-2 inhibitors and apoptosis inducers” (Journal of Enzyme Inhibition and Medicinal Chemistry, 2021).

Columns and labels:
MDA-MB-468 = assay: NCI 60-cell line one-dose antiproliferative screen (SRB); format: cell-based; settings: Homo sapiens, read-out: growth inhibition % (GI%)
Experimental: (§1) Anticancer activity screening of the newly synthesised compounds was measured in vitro utilising 60 different human tumour cell lines provided by US National Cancer Institute according to previously reported standard procedure[41–43] as follows: Cells are inoculated into 96-well microtiter plates in 100 ml. After cell inoculation, the microtiter plates are incubated at 37 °C, 5% CO2, 95% air, and 100% relative humidity for 24 h prior to addition of experimental compounds. After 24 h, two plates of each cell line are fixed in situ with TCA, to represent a measurement of the cell population for each cell line at the time of compound addition (Tz). Experimental compounds are solubilised in dimethyl sulfoxide at 400-fold the desired final maximum test concentration and stored frozen prior to use. At the time of compound addition, an aliquot of frozen concentrate is thawed and diluted to twice the desired final maximum test concentration with a complete medium containing […] gentamicin. Aliquots of […] of the compounds dilutions are added to the appropriate microtiter wells already containing 100 ml of medium, resulting in the required final compound concentration. Following compound addition, the plates are incubated for an additional 48 h at 37 °C, 5% CO2, 95% air, and 100% relative humidity. For adherent cells, the assay is terminated by the addition of cold trichloroacetic acid (TCA). Cells are fixed in situ by the gentle addition of 50 ml of cold 50% (w/v) TCA (final concentration, 10% TCA) and incubated for […] at 4 °C. The supernatant is discarded, and the plates are washed five times with tap water and air-dried. Sulforhodamine B (SRB) solution (100 ml) at 0.4% (w/v) in 1% acetic acid is added to each well, and plates are incubated for 10 min at room temperature. After staining, the unbound dye is removed by washing five times with 1% acetic acid and the plates are air-dried. The bound stain is subsequently solubilised with a 10 mM trizma base, and the absorbance is read on an automated plate reader at a wavelength of 515 nm. For suspension cells, the methodology is the same except that the assay is terminated by fixing settled cells at the bottom of the wells by gently adding 50 ml of 80% TCA (final concentration, 16% TCA). Using the absorbance measurements [time zero, (Tz), control growth, (C), and test growth in the presence of compound (Ti)], the percentage growth is calculated for each compound. The One-dose data are reported as a mean graph of the percent growth of treated cells. The reported number is growth relative to the no-compound control, and relative to the time zero number of cells. This allows the detection of both growth inhibition and lethality.
(§2) Fifteen newly synthesised compounds were tested for their in vitro antiproliferative activity by the National Cancer Institute (NCI), Maryland, USA[50], under the Developmental Therapeutic Program (DTP)[41]^,[43]^,[51]^,[52]. The tested compounds were evaluated at a concentration of 10 µM on a panel of 60 tumour cell lines representing leukaemia and non-small cell lung, colon, CNS, melanoma, ovarian, renal, prostate, and breast cancers. The antiproliferative activity was presented by the NCI as percent growth of the treated cells and is presented in Table 1 as growth inhibition percentage (GI%) achieved by the tested compounds.

A549/ATCC = assay: as above; format: cell-based; settings: Homo sapiens, read-out: growth inhibition % (GI%)
Experimental: as §1, §2

EKVX = assay: as above; format: cell-based; settings: Homo sapiens, read-out: growth inhibition % (GI%)
Experimental: as §1, §2

HS 578 T = assay: as above; format: cell-based; settings: Homo sapiens, read-out: growth inhibition % (GI%)
Experimental: as §1, §2

U251 = assay: as above; format: cell-based; settings: Homo sapiens, U-251, read-out: growth inhibition % (GI%)
Experimental: as §1, §2

SN 12 C = assay: as above; format: cell-based; settings: Homo sapiens, SN12C, read-out: growth inhibition % (GI%)
Experimental: as §1, §2

M14 = assay: as above; format: cell-based; settings: Homo sapiens, read-out: growth inhibition % (GI%)
Experimental: as §1, §2

MOLT-4 = assay: as above; format: cell-based; settings: Homo sapiens, read-out: growth inhibition % (GI%)
Experimental: as §1, §2

RXF 393 = assay: as above; format: cell-based; settings: Homo sapiens, read-out: growth inhibition % (GI%)
Experimental: as §1, §2

SW-620 = assay: as above; format: cell-based; settings: Homo sapiens, read-out: growth inhibition % (GI%)
Experimental: as §1, §2

SNB-75 = assay: as above; format: cell-based; settings: Homo sapiens, read-out: growth inhibition % (GI%)
Experimental: as §1, §2

NCI-H522 = assay: as above; format: cell-based; settings: Homo sapiens, read-out: growth inhibition % (GI%)
Experimental: as §1, §2

ACHN = assay: as above; format: cell-based; settings: Homo sapiens, read-out: growth inhibition % (GI%)
Experimental: as §1, §2

NCI-H226 = assay: as above; format: cell-based; settings: Homo sapiens, read-out: growth inhibition % (GI%)
Experimental: as §1, §2

UO-31 = assay: as above; format: cell-based; settings: Homo sapiens, read-out: growth inhibition % (GI%)
Experimental: as §1, §2

LOX IMVI = assay: as above; format: cell-based; settings: Homo sapiens, read-out: growth inhibition % (GI%)
Experimental: as §1, §2

BT-5 = assay: as above; format: cell-based; settings: Homo sapiens, read-out: growth inhibition % (GI%)
Experimental: as §1, §2

PC-3 = assay: as above; format: cell-based; settings: Homo sapiens, read-out: growth inhibition % (GI%)
Experimental: as §1, §2

IGROV1 = assay: as above; format: cell-based; settings: Homo sapiens, IGROV-1, read-out: growth inhibition % (GI%)
Experimental: as §1, §2

MCF7 = assay: as above; format: cell-based; settings: Homo sapiens, read-out: growth inhibition % (GI%)
Experimental: as §1, §2

SK-MEL-5 = assay: as above; format: cell-based; settings: Homo sapiens, read-out: growth inhibition % (GI%)
Experimental: as §1, §2

SF-539 = assay: as above; format: cell-based; settings: Homo sapiens, read-out: growth inhibition % (GI%)
Experimental: as §1, §2

CAKI-1 = assay: as above; format: cell-based; settings: Homo sapiens, read-out: growth inhibition % (GI%)
Experimental: as §1, §2

RPMI-8226 = assay: as above; format: cell-based; settings: Homo sapiens, read-out: growth inhibition % (GI%)
Experimental: as §1, §2

OVCAR-8 = assay: as above; format: cell-based; settings: Homo sapiens, read-out: growth inhibition % (GI%)
Experimental: as §1, §2

MDA-MB-231/ATCC = assay: as above; format: cell-based; settings: Homo sapiens, read-out: growth inhibition % (GI%)
Experimental: as §1, §2

HOP-62 = assay: as above; format: cell-based; settings: Homo sapiens, read-out: growth inhibition % (GI%)
Experimental: as §1, §2

A498 = assay: as above; format: cell-based; settings: Homo sapiens, read-out: growth inhibition % (GI%)
Experimental: as §1, §2

UACC-62 = assay: as above; format: cell-based; settings: Homo sapiens, read-out: growth inhibition % (GI%)
Experimental: as §1, §2

NCI-H23 = assay: as above; format: cell-based; settings: Homo sapiens, read-out: growth inhibition % (GI%)
Experimental: as §1, §2

T-47D = assay: as above; format: cell-based; settings: Homo sapiens, T47D, read-out: growth inhibition % (GI%)
Experimental: as §1, §2

SNB-19 = assay: as above; format: cell-based; settings: Homo sapiens, read-out: growth inhibition % (GI%)
Experimental: as §1, §2

SF-268 = assay: as above; format: cell-based; settings: Homo sapiens, read-out: growth inhibition % (GI%)
Experimental: as §1, §2

HCT-15 = assay: as above; format: cell-based; settings: Homo sapiens, read-out: growth inhibition % (GI%)
Experimental: as §1, §2

HCT-116 = assay: as above; format: cell-based; settings: Homo sapiens, read-out: growth inhibition % (GI%)
Experimental: as §1, §2

UACC-257 = assay: as above; format: cell-based; settings: Homo sapiens, read-out: growth inhibition % (GI%)
Experimental: as §1, §2

SR = assay: as above; format: cell-based; settings: Homo sapiens, read-out: growth inhibition % (GI%)
Experimental: as §1, §2

NCI/ADR-RES = assay: as above; format: cell-based; settings: Homo sapiens, read-out: growth inhibition % (GI%)
Experimental: as §1, §2

NCI-H322M = assay: as above; format: cell-based; settings: Homo sapiens, read-out: growth inhibition % (GI%)
Experimental: as §1, §2

MALME-3M = assay: as above; format: cell-based; settings: Homo sapiens, read-out: growth inhibition % (GI%)
Experimental: as §1, §2

OVCAR-5 = assay: as above; format: cell-based; settings: Homo sapiens, read-out: growth inhibition % (GI%)
Experimental: as §1, §2

KM12 = assay: as above; format: cell-based; settings: Homo sapiens, read-out: growth inhibition % (GI%)
Experimental: as §1, §2

K-562 = assay: as above; format: cell-based; settings: Homo sapiens, K562, read-out: growth inhibition % (GI%)
Experimental: as §1, §2

MDA-MB-435 = assay: as above; format: cell-based; settings: Homo sapiens, read-out: growth inhibition % (GI%)
Experimental: as §1, §2

HOP-92 = assay: as above; format: cell-based; settings: Homo sapiens, read-out: growth inhibition % (GI%)
Experimental: as §1, §2

OVCAR-4 = assay: as above; format: cell-based; settings: Homo sapiens, read-out: growth inhibition % (GI%)
Experimental: as §1, §2

Structure (SMILES)	melting point [°C]	inhibition at 10 µM (MDA-MB-468) [%]	inhibition at 10 µM (A549/ATCC) [%]	inhibition at 10 µM (EKVX) [%]	inhibition at 10 µM (U251) [%]	inhibition at 10 µM (SN 12 C) [%]	inhibition at 10 µM (M14) [%]	inhibition at 10 µM (SNB-75) [%]	inhibition at 10 µM (NCI-H522) [%]	inhibition at 10 µM (ACHN) [%]	inhibition at 10 µM (NCI-H226) [%]	inhibition at 10 µM (UO-31) [%]	inhibition at 10 µM (LOX IMVI) [%]	inhibition at 10 µM (PC-3) [%]	inhibition at 10 µM (IGROV1) [%]	inhibition at 10 µM (MCF7) [%]	inhibition at 10 µM (SK-MEL-5) [%]	inhibition at 10 µM (SF-539) [%]	inhibition at 10 µM (CAKI-1) [%]	inhibition at 10 µM (RPMI-8226) [%]	further results
Cc1ccc(C(=O)c2ccc(CC(=O)NNC(=O)Nc3c(C)cccc3Cl)n2C)cc1 [Compound 8b, N-(2-Chloro-6-methylphenyl)-2–(2-(1-methyl-5–(4-methylbenzoyl)-1H-pyrrol-2-yl)acetyl)hydrazinecarboxamide]	240 to 242	< 10	< 10	< 10	< 10	< 10	< 10	27.9	< 10	< 10	< 10	26.1	< 10	< 10	11.2	< 10	< 10	< 10	11.3	< 10	inhibition at 10 µM (HS 578 T): < 10%; inhibition at 10 µM (MOLT-4): < 10%; inhibition at 10 µM (RXF 393): < 10%; inhibition at 10 µM (SW-620): < 10%; inhibition at 10 µM (BT-5): 12.7%; inhibition at 10 µM (OVCAR-8): < 10%; inhibition at 10 µM (MDA-MB-231/ATCC): < 10%; inhibition at 10 µM (HOP-62): < 10%; inhibition at 10 µM (A498): < 10%; inhibition at 10 µM (UACC-62): < 10%; inhibition at 10 µM (NCI-H23): < 10%; inhibition at 10 µM (T-47D): < 10%; inhibition at 10 µM (SNB-19): 16.1%; inhibition at 10 µM (SF-268): < 10%; inhibition at 10 µM (HCT-15): < 10%
Cc1ccc(C(=O)c2ccc(CC(=O)NN=C3C(=O)Nc4ccc(Br)cc43)n2C)cc1 [Compound 6b, N′-(5-Bromo-2-oxoindolin-3-ylidene)-2–(1-methyl-5–(4-methylbenzoyl)-1H-pyrrol-2-yl)acetohydrazide]	195 to 197	< 10	< 10	< 10	34.4	< 10	< 10	36.3	13.2	< 10	< 10	25	10	< 10	< 10	< 10	< 10	< 10	15.4	< 10	inhibition at 10 µM (HCT-116): < 10%; inhibition at 10 µM (UACC-257): < 10%; inhibition at 10 µM (SR): < 10%; inhibition at 10 µM (NCI/ADR-RES): < 10%; inhibition at 10 µM (NCI-H322M): < 10%; inhibition at 10 µM (MALME-3M): < 10%; inhibition at 10 µM (OVCAR-5): < 10%; inhibition at 10 µM (OVCAR-8): < 10%; inhibition at 10 µM (KM12): < 10%; inhibition at 10 µM (MDA-MB-231/ATCC): < 10%; inhibition at 10 µM (K-562): 10.6%; inhibition at 10 µM (A498): 10.2%; inhibition at 10 µM (UACC-62): < 10%; inhibition at 10 µM (MDA-MB-435): < 10%; inhibition at 10 µM (NCI-H23): 13.7%; inhibition at 10 µM (SNB-19): < 10%; inhibition at 10 µM (HOP-92): < 10%; inhibition at 10 µM (SF-268): < 10%; inhibition at 10 µM (OVCAR-4): 10.1%
